Results on 13 compounds are retold here after US12391671B2, “Allosteric EGFR inhibitors and methods of use thereof” (Dana-Farber Cancer Institute, Inc., priority 2019, dated 2025).

The structures appear in SMILES notation. pIC50: −log10 of the molar value. Counter-ions that a name gives are not always drawn. Like-named read-outs stand apart in the source and are kept apart here.

In test [1] the test system is NSCLC resistant to gefitinib or erlotinib. Conditions: patients with NSCLC that have developed resistance to gefitinib or erlotinib; cited from earlier work.
The test system of test [2] is EGFR mutant L858R Ba/F3 cells. The test is described as follows: Ba/F3 cell proliferation model (Cell Titer Glo), EGFR L858R. Format: cell-based, murine. The following applies: 72 hours. The method, boiled down:
(§1)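 Retrovirally transduced Ba/F3 cells exposed 72 h to compound alone or with 1 μg/mL cetuximab, triplicate points, repeated at least three times. Viability by Cell Titer Glo luminescence (ATP); curves fitted by non-linear sigmoidal dose-response regression.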

The target of the next test is EGFR L858R (Homo sapiens (Human), UniProt P00533, L858R). The test is described as follows: HTRF-based EGFR biochemical assay (L858R). The following applies: 100 μM ATP, enzyme 0.1 nM. The method, boiled down:
(§2)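 Mutant EGFR (L858R 0.1 nM, L858R/T790M 0.02 nM) preincubated 30 min with compounds at room temperature in HEPES pH 7.0 buffer with Mg2+/Mn2+, then reacted 20 min with 1 μM biotinylated tyrosine kinase peptide and 100 μM ATP. Phosphorylation read by HTRF (Eu-cryptate anti-phosphotyrosine/streptavidin-XL665, 665/620 nm) after EDTA quench.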
(In TR-FRET formats the signal depends on donor and acceptor labels being close together.)

Another test has as its target EGFR L858R/T790M (Homo sapiens (Human), UniProt P00533, L858R/T790M). The experiment in a line: HTRF-based EGFR biochemical assay (L858R/T790M). Conditions: 100 μM ATP, enzyme 0.02 nM. Put shortly:
as §2

For test [3], the system named is EGFR mutant L858R/T790M Ba/F3 cells. The experiment in a line: Ba/F3 cell proliferation model (Cell Titer Glo), EGFR L858R/T790M. Format: cell-based, murine. Conditions: 72 hours. Put shortly:
as §1
For orientation: Cellular ATP, detected with luciferase, serves as a proxy for viable cell number.

Where [4] appears, read: Mus musculus, BaF3, single agent, read-out: Cell IC50 BaF3 EGFR L858R.
[5] abbreviates: Mus musculus, BaF3, single agent, read-out: Cell IC50 BaF3 EGFR L858R/T790M.
Where [6] appears, read: in combination with 1 μg/mL cetuximab, read-out: Cell IC50 BaF3 EGFR L858R/T790M (+cetux.).
The mark [7] stands for this setting: in combination with 1 μg/mL cetuximab, read-out: Cell IC50 BaF3 EGFR L858R (+cetux.).

Chain of EGFR L858R (P00533 25-1210 L858R): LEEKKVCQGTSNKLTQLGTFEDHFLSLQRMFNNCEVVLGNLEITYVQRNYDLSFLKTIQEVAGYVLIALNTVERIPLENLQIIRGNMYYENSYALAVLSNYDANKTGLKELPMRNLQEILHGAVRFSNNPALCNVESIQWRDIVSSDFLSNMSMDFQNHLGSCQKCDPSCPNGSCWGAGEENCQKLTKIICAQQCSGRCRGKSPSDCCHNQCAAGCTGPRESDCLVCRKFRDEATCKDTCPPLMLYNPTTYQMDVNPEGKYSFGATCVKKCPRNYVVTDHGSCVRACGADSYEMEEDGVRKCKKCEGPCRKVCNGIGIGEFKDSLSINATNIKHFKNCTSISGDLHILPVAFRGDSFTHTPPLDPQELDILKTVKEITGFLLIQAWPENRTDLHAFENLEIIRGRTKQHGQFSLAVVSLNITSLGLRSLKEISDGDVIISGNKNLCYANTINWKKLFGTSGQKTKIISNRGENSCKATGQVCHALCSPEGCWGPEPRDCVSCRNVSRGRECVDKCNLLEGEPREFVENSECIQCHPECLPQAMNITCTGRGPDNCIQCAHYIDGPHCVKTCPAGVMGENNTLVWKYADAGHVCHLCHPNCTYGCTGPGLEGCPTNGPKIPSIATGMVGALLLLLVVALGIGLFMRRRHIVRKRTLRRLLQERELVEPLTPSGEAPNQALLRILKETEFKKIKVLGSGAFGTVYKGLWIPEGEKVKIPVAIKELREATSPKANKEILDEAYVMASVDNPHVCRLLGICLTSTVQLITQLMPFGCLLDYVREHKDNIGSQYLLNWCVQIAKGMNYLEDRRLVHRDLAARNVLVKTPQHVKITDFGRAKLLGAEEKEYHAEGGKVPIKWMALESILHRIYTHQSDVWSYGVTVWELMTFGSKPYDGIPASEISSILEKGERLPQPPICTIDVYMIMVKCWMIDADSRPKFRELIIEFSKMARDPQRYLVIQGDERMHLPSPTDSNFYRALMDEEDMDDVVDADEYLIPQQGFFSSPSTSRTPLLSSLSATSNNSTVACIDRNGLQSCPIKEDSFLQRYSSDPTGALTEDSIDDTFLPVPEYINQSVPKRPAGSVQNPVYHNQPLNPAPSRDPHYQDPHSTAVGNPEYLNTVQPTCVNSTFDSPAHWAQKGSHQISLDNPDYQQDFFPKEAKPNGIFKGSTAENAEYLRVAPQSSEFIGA
Chain of EGFR L858R/T790M (P00533 25-1210 T790M/L858R): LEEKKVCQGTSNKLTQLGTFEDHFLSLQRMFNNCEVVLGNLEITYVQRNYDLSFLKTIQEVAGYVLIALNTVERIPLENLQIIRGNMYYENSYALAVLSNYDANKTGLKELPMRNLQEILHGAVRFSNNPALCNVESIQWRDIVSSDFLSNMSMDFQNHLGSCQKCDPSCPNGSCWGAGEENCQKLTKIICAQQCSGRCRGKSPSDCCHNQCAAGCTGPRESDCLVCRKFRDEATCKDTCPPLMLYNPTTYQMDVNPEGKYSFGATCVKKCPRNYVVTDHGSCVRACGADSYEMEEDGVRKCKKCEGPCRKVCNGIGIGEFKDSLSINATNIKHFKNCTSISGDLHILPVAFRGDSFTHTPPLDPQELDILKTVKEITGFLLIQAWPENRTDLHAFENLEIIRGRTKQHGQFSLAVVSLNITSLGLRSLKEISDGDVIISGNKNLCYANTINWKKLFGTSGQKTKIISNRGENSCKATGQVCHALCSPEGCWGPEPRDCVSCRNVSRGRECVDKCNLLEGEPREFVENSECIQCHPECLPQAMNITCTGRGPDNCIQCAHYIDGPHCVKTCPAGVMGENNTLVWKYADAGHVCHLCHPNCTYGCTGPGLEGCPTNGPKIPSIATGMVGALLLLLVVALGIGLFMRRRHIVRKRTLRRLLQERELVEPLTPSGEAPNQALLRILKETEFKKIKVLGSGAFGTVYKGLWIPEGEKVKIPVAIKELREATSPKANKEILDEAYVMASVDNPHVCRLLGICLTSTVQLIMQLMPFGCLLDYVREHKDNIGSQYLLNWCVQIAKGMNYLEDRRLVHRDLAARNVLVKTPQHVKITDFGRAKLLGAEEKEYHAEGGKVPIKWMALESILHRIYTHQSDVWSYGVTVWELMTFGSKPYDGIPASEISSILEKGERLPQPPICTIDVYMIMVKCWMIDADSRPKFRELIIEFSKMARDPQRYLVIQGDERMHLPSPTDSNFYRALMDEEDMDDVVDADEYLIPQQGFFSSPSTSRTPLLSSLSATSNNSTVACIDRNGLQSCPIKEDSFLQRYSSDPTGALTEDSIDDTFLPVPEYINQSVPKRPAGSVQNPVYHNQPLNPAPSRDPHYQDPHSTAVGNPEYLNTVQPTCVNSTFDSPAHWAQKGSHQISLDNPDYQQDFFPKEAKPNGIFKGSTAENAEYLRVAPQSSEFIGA

With `CN(C)C/C=C/C(=O)Nc1cc2c(Nc3ccc(F)c(Cl)c3)ncnc2cc1O[C@H]1CCOC1` [afatinib], in test [1], the “RR (response rate)” value is listed as “less than 10%”.

On to `CN1CCC(Oc2ccc(-c3ccc4c(c3)C(=O)N(C(c3nc5ccccc5[nH]3)c3cc(F)ccc3O)C4)cc2)CC1` (stereo not drawn) [Compound 090, 2-[1H-benzimidazol-2-yl-(5-fluoro-2-hydroxy-phenyl)methyl]-6-[4-[(1-methyl-4-piperidyl)oxy]phenyl]isoindolin-1-one], for which the pIC50 in test [2] (setting [4]) is 5.84; against EGFR L858R, 7.96; at EGFR L858R/T790M, 8.10; in test [3] (setting [5]), 6.07; in test [3] (setting [6]), 7.70.

For the compound `CN1CCC(c2ccc(-c3ccc4cn(C(c5nc6ccccc6[nH]5)c5cc(F)ccc5O)nc4c3Cl)cc2)CC1` (stereo not drawn) [Compound 092, 2-[1H-benzimidazol-2-yl-[7-chloro-6-[4-(1-methyl-4-piperidyl)phenyl]-indazol-2-yl]methyl]-4-fluoro-phenol; dihydrochloride], the pIC50 in test [2] (setting [4]) is 6.09; on EGFR L858R, 8.40; at EGFR L858R/T790M, 9.00; in test [3] (setting [5]), 7.00; in test [3] (setting [6]), 8.00.

Regarding `CN1CCC(c2ccc(-c3ccc4ccn(C(c5ccccc5)c5nc6ccccc6[nH]5)c(=O)c4c3F)cc2)CC1` (stereo not drawn) [Compound 071], the pIC50 was 5.92 in test [2] (setting [4]); less than 7.00 against EGFR L858R; 7.70 at EGFR L858R/T790M; 5.86 in test [3] (setting [5]); 6.48 in test [3] (setting [6]).

As to `CN1CCC(c2ccc(-c3ccc4ncn(C(c5nc6ccccc6[nH]5)c5cc(F)ccc5O)c(=O)c4c3Cl)cc2)CC1` (stereo not drawn) [Compound 075, 3-[1H-benzimidazol-2-yl-(5-fluoro-2-hydroxy-phenyl)methyl]-5-chloro-6-[4-(1-methyl-4-piperidy)phenyl]-quinazolin-4-one; dihydrochloride], the pIC50 in test [2] (setting [4]) was 7.00; against EGFR L858R, 9.00; at EGFR L858R/T790M it was 9.15; in test [3] (setting [5]), 7.05; in test [3] (setting [6]) it was 7.70.

Regarding `CN1CCC(c2ccc(-c3ccc4ncn(C(c5nc6ccccc6[nH]5)c5cc(F)ccc5O)c(=O)c4n3)cc2)CC1` (stereo not drawn) [Compound 009, 3-((1H-Benzo[d]imidazol-2-yl)(5-fluoro-2-hydroxyphenyl)methyl)-6-(4-(1-methylpiperidin-4-yl)phenyl)pyrido[3,2-d]pyrimidin-4(3H)-one 2,2,2-trifluoroacetate], the pIC50 in test [2] (setting [4]) was 5.41; in test [2] (setting [7]), 6.74; on EGFR L858R it was 8.52; at EGFR L858R/T790M, 9.40; in test [3] (setting [5]), 6.03; in test [3] (setting [6]), 7.70.

As for `CN1CCC(c2ccc(-c3ccc4cn(C(c5nc6ccccc6[nH]5)c5cc(F)ccc5O)nc4c3F)cc2)CC1` (stereo not drawn) [Compound 034, 2-[1H-benzimidazol-2-yl-[7-fluoro-6-[4-(1-methyl-4-piperidyl)phenyl]indazol-2-yl]methyl]-4-fluoro-phenol;hydrochloride], the pIC50 in test [2] (setting [4]) was 5.84; in test [2] (setting [7]), 7.22; on EGFR L858R it was 8.40; at EGFR L858R/T790M, 9.15; in test [3] (setting [5]) it was 6.38; in test [3] (setting [6]) it was 8.30.

In the case of `CN1CCC(c2ccc(-c3ccc4c(c3)C(=O)N([C@@H](c3nc5ccccc5[nH]3)c3cc(F)ccc3O)C4)cc2)CC1` [Compound 022, 2-[(R)-1H-benzimidazol-2-yl-(5-fluoro-2-hydroxy-phenyl)methyl]-6-[4-(1-methyl-4-piperidyl)phenyl]isoindolin-1-one], the pIC50 in test [2] (setting [7]) was 7.40; in test [2] (single agent, read-out: Cell IC50 BaF3 EGFR L858R), 6.19; at EGFR L858R, 9.52; against EGFR L858R/T790M, 10.00; in test [3] (setting [6]), 8.30; in test [3] (single agent, read-out: Cell IC50 BaF3 EGFR L858R/T790M) it was 6.42.

Consider `CN1CCC(c2ccc(-c3cc(F)c4cn(C(c5nc6ccccc6[nH]5)c5cc(F)ccc5O)nc4c3)cc2)CC1` (stereo not drawn) [Compound 119, 2-((1H-Benzo[d]imidazol-2-yl)(4-fluoro-6-(4-(1-methylpiperidin-4-yl)phenyl)-2H-indazol-2-yl)methyl)-4-fluorophenol; trifluoroacetate], for which the pIC50 in test [2] (setting [4]) was 6.11; on EGFR L858R, 7.96; on EGFR L858R/T790M it was 8.52; in test [3] (setting [5]) it was 6.38.

`Cc1nc(C(c2cc(F)ccc2O)N2Cc3ccc(-c4ccc(C5CCN(C)CC5)cc4)cc3C2=O)[nH]c1C` (stereo not drawn) [Compound 087, 2-[(4,5-dimethyl-1H-imidazol-2-yl)-(5-fluoro-2-hydroxy-phenyl)methyl]-6-[4-(1-methyl-4-piperidyl)phenyl]isoindolin-1-one]: the pIC50 in test [2] (setting [4]) is 5.86; at EGFR L858R it was less than 7.00; at EGFR L858R/T790M, 7.60; in test [3] (setting [5]), 5.88.

As to `COc1c(-c2ccc(C3CCN(C)CC3)cc2)ccc2ncn(C(c3nc4ccccc4[nH]3)c3cc(F)ccc3O)c(=O)c12` (stereo not drawn) [Compound 077, 3-[1H-benzimidazol-2-yl-(5-fluoro-2-hydroxy-phenyl)methyl]-5-methoxy-6-[4-(1-methyl-4-piperidyl)phenyl]quinazolin-4-one;dihydrochloride], the pIC50 is 6.04 in test [2] (setting [4]); 8.70 on EGFR L858R; 8.70 at EGFR L858R/T790M; 6.35 in test [3] (setting [5]); 7.30 in test [3] (setting [6]).

With `CN1CCC(c2ccc(-c3ccc4c(c3)C(=O)N(C(c3nc5ccccc5[nH]3)c3cc(F)ccc3O)C4)cc2)CC1` (stereo not drawn) [Compound 024, 2-[1H-Benzimidazol-2-yl-(5-fluoro-2-hydroxy-phenyl)methyl]-6-[4-(1-methyl-4-piperidyl)phenyl]isoindolin-1-one; hydrochloride], the pIC50 in test [2] (setting [4]) is 5.93; in test [2] (setting [7]) it was 7.22; against EGFR L858R, 8.70; on EGFR L858R/T790M, 9.30; in test [3] (setting [5]) it was 6.36; in test [3] (setting [6]), 8.15.

As to `CCc1c(-c2ccc(C3CCN(C)CC3)cc2)ccc2ncn(C(c3nc4ccccc4[nH]3)c3cc(F)ccc3O)c(=O)c12` (stereo not drawn) [Compound 074, 3-[1H-benzimidazol-2-yl-(5-fluoro-2-hydroxy-phenyl)methyl]-5-ethyl-6-[4-(1-methyl-4-piperidyl)phenyl]-quinazolin-4-one; dihydrochloride], the pIC50 in test [2] (setting [4]) is 6.96; at EGFR L858R, 8.70; on EGFR L858R/T790M it was 9.00; in test [3] (setting [5]), 6.92; in test [3] (setting [6]), 7.70.
